This is an account of results in patent US20160058829A1, “ANTI-FIBROTIC PEPTIDES AND THEIR USE IN METHODS FOR TREATING DISEASES AND DISORDERS CHARACTERIZED BY FIBROSIS” (Thrasos Innovation, Inc., priority 2011, published 2016).

The test relates to human proximal tubule epithelial cells (HK2). The experiment in a line: D-glucose-induced EMT assay, E-cadherin immunofluorescence with colorimetric image analysis. It counts as cell-based. As to conditions: D-glucose 50 mM. On the procedure: Chronic hyperglycemia is a known cause of renal fibrosis in type 2 diabetes. The assay in this example induces the transdifferentiation from the epithelial to the mesenchymal phenotype (EMT) in human proximal tubule epithelial cells (HK2) by exposing them to high levels of D-glucose (100 mM and 200 mM). […] Exposure to 100 mM D-glucose results in the loss of E-cadherine expression as evidenced by the loss of the fluorescene signal. Using this assay test compounds are evaluated based on their ability to inhibit the EMT processes in the presence of high levels of D-glucose. FIGS. 4-16 are fluorescence micrographs of HK2 cells exposed to 100 mM D-glucose and 100 uM of SEQ IS NOs 1 through 11, respectively. Note that all but SEQ ID NOs 10 and 11 were able to preserve the epithelial phenotype (i.e., inhibit the EMT).
Results are provided in the context of FIG. 1 and Table 3, below. In Table 3 below, compound response is scored using image analysis as described herein in the method of Methods and Materials, part C. A 0% response corresponds to the signal for 100 mM (or 200 mM) D-glucose (untreated) while the 100% response corresponds to the signal for media in the absence of D-glucose.
It has been shown that transdifferentiation of proximal tubular epithelial cells is a critical step in the development of renal fibrosis, and that this is associated with a loss of the epithelial phenotypic marker, E-cadherin expression. This provides the basis for the development of a cell-based screening assay in which high concentrations of D-Glucose (50-100 mM) are used to induce a loss of E-cadherin expression in human renal proximal tubular epithelial (HK-2) cells, and compounds are tested for their ability to reverse the loss E-cadherin expression.
Materials: • Human proximal tubular epithelial cells, HK-2 (ATCC #CRL-2190) • Serum-free keratinocyte medium (GIBCO #17005-042, K-SFM) • Epidermal growth factor (EGF: 5 ng/mL) • Bovine pituitary extract (BPE: 40 ug/mL) • Primary antibody, Mouse IgG anti-E-cadherin (R&D Systems # MAB1838) • BSA [Sigma #A7030] • secondary antibody, FITC-conjugated Goat anti-mouse IgG (Fab2) fragment (Sigma-Aldrich # F-2653) • Paraformaldehyde (10%)) • Triton X-100 (Sigma # T-9284) • PBS (Fisher Scientific #BP399-1) • D-PBS (Invitrogen #14190-144) • Polypropylene tips (Axygen, Inc. 0.5-10 uL, cat # T-300-L-R; 1-200 uL, Cat # T-200-L-R; 1-1000 uL, Cat # T-1000-C-L-R) • 50 mL polypropylene culture tubes (Fisher Scientific, cat #06-443-18) • 24-well Coster cell culture plates (Fisher Scientific #07-200-84)
Reagents & Test Samples: • Positive control: BMP-7, assayed at concentrations 0.1 and 1 ug/mL • Test compounds (peptides): each tested at final concentrations 100 uM and 200 uM.
Assay Procedure for Cell Culture Assay: • Run assay in 24-well culture plates. • Seed HK-2 cells at a density between 25,000 and 30,000 cells per well in lmL K-SFM medium with supplements added (growth medium) • Incubate HK-2 cells for 24 hours at 37° C., and let cells attach the plate • Next Day afternoon, change the medium with K-SFM medium with no added supplements (serum free medium) in all wells except the first two control wells. • Continue incubating HK-2 cells overnight at 37° C. • Next Day, aspirate the medium from all wells. Incubate the cells in growth medium (first two control wells) or expose them to test compounds for 2 hours at 37° C. Final concentrations of each Test compound are 100 and 200 uM. BMP-7 serves as a positive control in the assay. • After incubation, add D-glucose to all wells except first two control wells. Final concentrations of D-Glucose are 50 and 100 mM. • Incubate HK-2 cells for 60 hours at 37° C. • Aspirate the medium from all wells. To the wells, add pre-warmed growth medium or serum free medium containing D-glucose alone or D-glucose and test compound or D-glucose and BMP-7. Final concentrations of D-Glucose and Test compound are the same as above. • Continue incubating HK-2 cells for 24 hours at 37° C. […]

Positions of bridges follow the written chain, without caps; N, C: chain ends.

As to “(H)-CYFDDSSNVLCKKYRS-(OH) (H-CYFDDSSNVLCKKYRS-OH; disulfide 1-11; SMILES CC(C)C[C@@H]1NC(=O)[C@H](C(C)C)NC(=O)[C@H](CC(N)=O)NC(=O)[C@H](CO)NC(=O)[C@H](CO)NC(=O)[C@H](CC(=O)O)NC(=O)[C@H](CC(=O)O)NC(=O)[C@H](Cc2ccccc2)NC(=O)[C@H](Cc2ccc(O)cc2)NC(=O)[C@@H](N)CSSC[C@@H](C(=O)N[C@@H](CCCCN)C(=O)N[C@@H](CCCCN)C(=O)N[C@@H](Cc2ccc(O)cc2)C(=O)N[C@@H](CCCNC(=N)N)C(=O)N[C@@H](CO)C(=O)O)NC1=O) [SEQ ID NO: 1]”, the “prevention of D-glucose induced loss of epithelial phenotype (E-cadherin expression)” value is given as “effectively prevents”.
